Laboratory results reported in patent US20110053225A1, “MULTI[…]” (GE […]-SCIENCES AB, priority 2008, published 2011).

Legend:
Assay in all cases: Cu(II)-VBIDA affinity for the tag (Table 1)
Format in all cases: binding
Conditions in all cases: r^2 ≈ 0.98
[1] = biological target: green fluorescent protein (GFP) variant GFP12, tag MEFHSVGLH, SEQ ID NO: 6
From the text: (§1) In this figure the kD data is given in millimolar not micromolar units.

[2] = biological target: green fluorescent protein (GFP) variant GFP2, tag MEFHSVGMH, SEQ ID NO: 3
From the text: as §1

[3] = biological target: green fluorescent protein (GFP) variant GFP24, tag MEFHLRARH, SEQ ID NO: 7
From the text: as §1

[4] = biological target: green fluorescent protein (GFP) variant GFP28, tag MEFHITGHH, SEQ ID NO: 11
From the text: as §1

[5] = biological target: green fluorescent protein (GFP) variant GFP29, tag MEFHHSLVH, SEQ ID NO: 12
From the text: as §1

[6] = biological target: green fluorescent protein (GFP), n-GFP (native, N-terminus MEFELGT, SEQ ID NO: 1)
From the text: as §1

[7] = biological target: green fluorescent protein (GFP) variant GFP25, tag MEFHRPMRH, SEQ ID NO: 8
From the text: as §1
(§2) These values are suitably low for such tags to be used in a separation process with binding of target at high enough affinity to allow for ease of washing and recovery.

[8] = biological target: green fluorescent protein (GFP) variant GFP27, tag MEFHWVARH, SEQ ID NO: 10
From the text: as §1, §2

[9] = biological target: green fluorescent protein (GFP) variant GFP30, tag MEFHAHHLH, SEQ ID NO: 13
From the text: as §1, §2

[10] = biological target: green fluorescent protein (GFP), 6His-GFP, tag […], SEQ ID NO: 14
From the text: as §1, §2

## C=Cc1ccc(CN(CC(=O)O)CC(=O)O)cc1.[Cu+2] [Cu(II)-VBIDA, N-(4-vinyl)-benzyl iminodiacetic acid]
[1]
  Kd: 200 µM
[2]
  Kd: 1200 µM
[3]
  Kd: 150 µM
[4]
  Kd: 110 µM
[5]
  Kd: 100 µM
[6]
  Kd: 1680 µM
[7]
  Kd: 140 µM
[8]
  Kd: 120 µM
[9]
  Kd: 90 µM
[10]
  Kd: 70 µM
